Tested on: not listed separately
Assay: Toxicity (50% lethal dose, intravenous)
Settings: mouse, in vivo, ddY male mice 20-25 g, read-out: LD50 (Intravenously administered mg/kg)
Description: Using ddY male mice weighing 20-25 g, 50% lethal dose of each test compound when intravenously administered was obtained, the results of which are shown in Table 5.

Compared with `CC(C)=CCCC(C)=CCCC(C)=CCCC(C)=CCCC(C)=CCCC(C)=CCCC(C)=CCCC(C)=CCCC(C)=CCCC(C)=CCNc1ccc(C(=O)O)c(O)c1` [drawing 60], `CC(C)=CCCC(C)=CCCC(C)=CCCC(C)=CCCC(C)=CCCC(C)=CCCC(C)=CCCC(C)=CCCC(C)=CCCC(C)=CCNc1ccc(C(=O)O)cc1` [drawing 59] is 1.6-fold lower in LD50: 45 mg/kg for the first, 27.7 mg/kg for the second.

Going from `CC(C)=CCCC(C)=CCCC(C)=CCCC(C)=CCCC(C)=CCCC(C)=CCCC(C)=CCCC(C)=CCCC(C)=CCCC(C)=CCNC(c1ccccc1)c1ccccc1` [drawing 66] to `CC(C)=CCCC(C)=CCCC(C)=CCCC(C)=CCCC(C)=CCCC(C)=CCCC(C)=CCCC(C)=CCCC(C)=CCCC(C)=CCNCc1cccc2ccccc12` [drawing 62], the LD50 falls from 1180 mg/kg to 207 mg/kg (5.7-fold).

Going from `COc1cccc(CNCC=C(C)CCC=C(C)CCC=C(C)CCC=C(C)CCC=C(C)CCC=C(C)CCC=C(C)CCC=C(C)CCC=C(C)CCC=C(C)C)c1OC` [drawing 70] to `COc1ccc(CNCC=C(C)CCC=C(C)CCC=C(C)CCC=C(C)CCC=C(C)CCC=C(C)CCC=C(C)CCC=C(C)CCC=C(C)CCC=C(C)C)cc1OC` [drawing 65], the LD50 rises from 30 mg/kg to 56.8 mg/kg (1.9-fold).

First: CC(C)=CCCC(C)=CCCC(C)=CCCC(C)=CCCC(C)=CCCC(C)=CCCC(C)=CCCC(C)=CCCC(C)=CCCC(C)=CCNCc1ccc(Cl)cc1 [drawing 64]
Second: CC(C)=CCCC(C)=CCCC(C)=CCCC(C)=CCCC(C)=CCCC(C)=CCCC(C)=CCCC(C)=CCCC(C)=CCCC(C)=CCNCc1ccc(C)cc1 [drawing 63]
The LD50 of the first is 3-fold higher: 371 mg/kg for the first, 123 mg/kg for the second.

First: CC(C)=CCCC(C)=CCCC(C)=CCCC(C)=CCCC(C)=CCCC(C)=CCCC(C)=CCCC(C)=CCCC(C)=CCCC(C)=CCNCc1ccc([N+](=O)[O-])cc1 [drawing 61]
Second: COc1ccc(CNCC=C(C)CCC=C(C)CCC=C(C)CCC=C(C)CCC=C(C)CCC=C(C)CCC=C(C)CCC=C(C)CCC=C(C)CCC=C(C)C)cc1 [drawing 68]
The LD50 of the first is higher: greater than 269 mg/kg for the first, 68 mg/kg for the second.

`COc1ccc(CNCC=C(C)CCC=C(C)CCC=C(C)CCC=C(C)CCC=C(C)CCC=C(C)CCC=C(C)CCC=C(C)CCC=C(C)C)cc1OC` [drawing 69] and `CC(C)=CCCC(C)=CCCC(C)=CCCC(C)=CCCC(C)=CCCC(C)=CCCC(C)=CCCC(C)=CCCC(C)=CCCC(C)=CCNCCc1ccc(N)cc1` [drawing 67] are within 1.5-fold of each other in LD50: 26 mg/kg for the first, 28 mg/kg for the second.

Tested on: Human interferon; normal diploid cells (fibroblast)
Assay: Human interferon-inducing activity (in vitro), 3H-uridine-uptake inhibition
Assay type: cell-based
Settings: 25 n molar suspension
Method: Interferon was induced according to the method of Edward A. Havell et al. by treating normal diploid cells (fibroblast) originated from human being with each test compound in the form of ethanol solution diluted with PBS (-) (25 n molar suspension). Using the radioisotope microassay method of H. Ishitsuka et al., interferon was measured in terms of 3H-uridine-uptakeinhibition rate.

In order of rising “Human interferon 3H uridine-uptake inhibition rate %” value:
1. COc1ccc(CNCC=C(C)CCCC(C)CCCC(C)CCCC(C)C)cc1OC (stereo not shown) [drawing 87]  1.8%
2. CC(C)=CCCC(C)=CCCC(C)=CCCC(C)=CCCC(C)=CCCC(C)=CCCC(C)=CCCC(C)=CCCC(C)=CCCC(C)=CCNc1ccc(C(=O)O)cc1 [drawing 71]  12.7%
3. CC(C)=CCCC(C)=CCCC(C)=CCCC(C)=CCCC(C)=CCCC(C)=CCCC(C)=CCCC(C)=CCCC(C)=CCCC(C)=CCNCc1cccc2ccccc12 [drawing 75]  13.7%
4. CC(C)=CCCC(C)=CCCC(C)=CCCC(C)=CCCC(C)=CCCC(C)=CCCC(C)=CCCC(C)=CCCC(C)=CCCC(C)=CCNCCCc1ccccc1 [drawing 73]  17.7%
5. CC(C)=CCCC(C)=CCCC(C)=CCCC(C)=CCCC(C)=CCCC(C)=CCCC(C)=CCCC(C)=CCCC(C)=CCCC(C)=CCNCc1cccc(CN)c1 [drawing 84]  20.2%
6. COc1cc(CNCC=C(C)CCC=C(C)CCC=C(C)CCC=C(C)CCC=C(C)CCC=C(C)CCC=C(C)CCC=C(C)CCC=C(C)C)cc(OC)c1OC  21.5%
7. CC(C)=CCCC(C)=CCCC(C)=CCCC(C)=CCCC(C)=CCCC(C)=CCCC(C)=CCCC(C)=CCCC(C)=CCCC(C)=CCNCc1ccc([N+](=O)[O-])cc1 [drawing 74]  23.6%
8. COc1cccc(CNCC=C(C)CCC=C(C)CCC=C(C)CCC=C(C)CCC=C(C)CCC=C(C)CCC=C(C)CCC=C(C)CCC=C(C)CCC=C(C)C)c1OC [drawing 85]  26.6%
9. COc1ccc(CCNCC=C(C)CCC=C(C)CCC=C(C)CCC=C(C)CCC=C(C)CCC=C(C)CCC=C(C)CCC=C(C)CCC=C(C)CCC=C(C)C)cc1OC [drawing 80]  32.5%
10. CC(C)=CCCC(C)=CCCC(C)=CCCC(C)=CCCC(C)=CCCC(C)=CCCC(C)=CCCC(C)=CCCC(C)=CCCC(C)=CCNCC(O)c1ccccc1 (stereo not shown) [drawing 86]  37.6%
11. CC(C)=CCCC(C)=CCCC(C)=CCCC(C)=CCCC(C)=CCCC(C)=CCCC(C)=CCCC(C)=CCCC(C)=CCCC(C)=CCNc1ccc(C(=O)O)c(O)c1 [drawing 72]  39.8%
12. COc1cc(CNCC=C(C)CCC=C(C)CCC=C(C)CCC=C(C)CCC=C(C)CCC=C(C)CCC=C(C)CCC=C(C)CCC=C(C)CCC=C(C)C)ccc1O [drawing 81]  41.9%
13. COc1ccc(CNCC=C(C)CCC=C(C)CCC=C(C)CCC=C(C)CCC=C(C)CCC=C(C)CCC=C(C)CCC=C(C)CCC=C(C)CCC=C(C)C)cc1 [drawing 82]  61.4%
14. CC(C)=CCCC(C)=CCCC(C)=CCCC(C)=CCCC(C)=CCCC(C)=CCCC(C)=CCCC(C)=CCCC(C)=CCCC(C)=CCNCCCCc1ccccc1 [drawing 79]  67.2%
15. CC(C)=CCCC(C)=CCCC(C)=CCCC(C)=CCCC(C)=CCCC(C)=CCCC(C)=CCCC(C)=CCCC(C)=CCCC(C)=CCNCc1ccc(Cl)cc1 [drawing 77]  75.7%
16. COc1ccc(CNCC=C(C)CCC=C(C)CCC=C(C)CCC=C(C)CCC=C(C)CCC=C(C)CCC=C(C)CCC=C(C)CCC=C(C)CCC=C(C)C)cc1OC [drawing 78]  77.8%
17. COc1ccc(CNCC=C(C)CCC=C(C)CCC=C(C)CCC=C(C)CCC=C(C)CCC=C(C)CCC=C(C)CCC=C(C)CCC=C(C)C)cc1OC [drawing 83]  86.9%
18. CC(C)=CCCC(C)=CCCC(C)=CCCC(C)=CCCC(C)=CCCC(C)=CCCC(C)=CCCC(C)=CCCC(C)=CCCC(C)=CCNCc1ccc(C)cc1 [drawing 76]  91.1%

Tested on: vaccinia virus
Assay: animal or person
Assay type: in vivo, ICR female mice
Settings: Orthopoxvirus vaccinia, in Mus musculus, ip, 192 h, read-out: Prevention from vaccinia infection (Pock inhibition rate %)

In order of rising inhibition in vivo at 50 mg/kg:
1. COc1ccc(CNC/C=C(\C)CCC=C(C)C)cc1OC  10%
2. CC(C)=CCCC(C)=CCCC(C)=CCCC(C)=CCCC(C)=CCCC(C)=CCCC(C)=CCCC(C)=CCCC(C)=CCCC(C)=CCNC(c1ccccc1)c1ccccc1 [drawing 34]  14.8%
3. CC(C)=CCCC(C)=CCCC(C)=CCCC(C)=CCCC(C)=CCCC(C)=CCCC(C)=CCCC(C)=CCCC(C)=CCCC(C)=CCNc1ccc(C(=O)O)cc1 [drawing 26]  15%
4. CC(C)=CCCC(C)=CCCC(C)=CCCC(C)=CCCC(C)=CCCC(C)=CCCC(C)=CCCC(C)=CCCC(C)=CCCC(C)=CCNCc1cccc2ccccc12 [drawing 30]  21.6%
5. COc1cccc(CNCC=C(C)CCC=C(C)CCC=C(C)CCC=C(C)CCC=C(C)CCC=C(C)CCC=C(C)CCC=C(C)CCC=C(C)CCC=C(C)C)c1OC [drawing 42]  32.5%
6. CC(C)=CCCC(C)=CCCC(C)=CCCC(C)=CCCC(C)=CCCC(C)=CCCC(C)=CCCC(C)=CCCC(C)=CCCC(C)=CCNCc1ccc(Cl)cc1 [drawing 32]  34%
7. COc1ccc(CNCC=C(C)CCC=C(C)CCC=C(C)CCC=C(C)CCC=C(C)CCC=C(C)CCC=C(C)CCC=C(C)CCC=C(C)CCC=C(C)C)cc1OC [drawing 33]  35.4%
8. CC(C)=CCCC(C)=CCCC(C)=CCCC(C)=CCCC(C)=CCCC(C)=CCCC(C)=CCCC(C)=CCCC(C)=CCCC(C)=CCNCCCCc1ccccc1 [drawing 36]  40.3%
9. CC(C)=CCCC(C)=CCCC(C)=CCCC(C)=CCCC(C)=CCCC(C)=CCCC(C)=CCCC(C)=CCCC(C)=CCCC(C)=CCNc1ccc(C(=O)O)c(O)c1 [drawing 27]  42.9%
10. CC(C)=CCCC(C)=CCCC(C)=CCCC(C)=CCCC(C)=CCCC(C)=CCCC(C)=CCCC(C)=CCCC(C)=CCCC(C)=CCNCc1ccc(C)cc1 [drawing 31]  44.8%
11. CC(C)=CCCC(C)=CCCC(C)=CCCC(C)=CCCC(C)=CCCC(C)=CCCC(C)=CCCC(C)=CCCC(C)=CCCC(C)=CCNCc1ccc([N+](=O)[O-])cc1 [drawing 29]  47.7%
12. COc1ccc(CNCC=C(C)CCC=C(C)CCC=C(C)CCC=C(C)CCC=C(C)CCC=C(C)CCC=C(C)CCC=C(C)CCC=C(C)C)cc1OC [drawing 40]  54.1%
13. COc1ccc(CNCC=C(C)CCC=C(C)CCC=C(C)CCC=C(C)CCC=C(C)CCC=C(C)CCC=C(C)CCC=C(C)CCC=C(C)CCC=C(C)C)cc1 [drawing 39]  58.8%
14. CC(C)=CCCC(C)=CCCC(C)=CCCC(C)=CCCC(C)=CCCC(C)=CCCC(C)=CCCC(C)=CCCC(C)=CCCC(C)=CCNCC(O)c1ccccc1 (stereo not shown) [drawing 43]  64.4%
15. CC(C)=CCCC(C)=CCCC(C)=CCCC(C)=CCCC(C)=CCCC(C)=CCCC(C)=CCCC(C)=CCCC(C)=CCCC(C)=CCNCCc1ccc(N)cc1 [drawing 35]  64.4%
16. COc1cc(CNCC=C(C)CCC=C(C)CCC=C(C)CCC=C(C)CCC=C(C)CCC=C(C)CCC=C(C)CCC=C(C)CCC=C(C)CCC=C(C)C)ccc1O [drawing 38]  67.1%
17. CC(C)=CCCC(C)=CCCC(C)=CCCC(C)=CCCC(C)=CCCC(C)=CCCC(C)=CCCC(C)=CCCC(C)=CCCC(C)=CCNCCCc1ccccc1 [drawing 28]  68.1%
18. COc1ccc(CCNCC=C(C)CCC=C(C)CCC=C(C)CCC=C(C)CCC=C(C)CCC=C(C)CCC=C(C)CCC=C(C)CCC=C(C)CCC=C(C)C)cc1OC [drawing 37]  68.1%
19. CC(C)=CCCC(C)=CCCC(C)=CCCC(C)=CCCC(C)=CCCC(C)=CCCC(C)=CCCC(C)=CCCC(C)=CCCC(C)=CCNCc1cccc(CN)c1 [drawing 41]  91.4%
